Data set [1] in a line: Quantum yield in 10:90 DMSO:aqueous solutions. Format: physicochemical. As to conditions: 7.5 μM, 10:90 DMSO:aqueous. As to the method:
The quantum yield of yellow-orange emitting 16a was 0.4649, 40 times greater than the corresponding neutral compound 15a. It was slightly higher than the yellow-green emitting neutral compound 20a, and >2 times higher than orange-red emitting anion 20c. The compounds (7.5 μM) were analyzed in 10:90 DMSO:aqueous solutions. Fluorescence emission was readily visible in a darkened room when the solutions were excited from below with 3-watt megaMAX 505 nm ALS system. The emission-enhancing properties afforded through the combination of the 3-1 transposition and methylation is in contrast to previously reported methyl ethers of seminaphthofluorescein compounds.

For data set [2] the following is noted: 10 mM HEPES, pH 7.5, 15% (v/v) EtOH, Leytus et al., cited from earlier work.
Data set [3] can be described thus: Spectral properties of rhodamine bis-boronic acids and precursors in DMSO:buffer. Format: physicochemical. As to the method:
Characterization: The spectral properties of compounds 50-53 were determined. Absorption and fluorescence spectra of solutions of the rhodamine bis-boronic acids 51 and 53, and their respective precursors 50 and 52, are shown in FIGS. 27A-C (in DMSO:buffer 1:9) and 27D-F (DMSO:buffer 1:1). […] Excitation and emission spectra were normalized to their absorbance at the excitation wavelength, and are proportional to quantum yield.

Like-named read-outs stand apart in the source and are kept apart here.

For `COC(=O)c1ccccc1-c1c2ccc(=O)cc-2oc2c1ccc1cccc(OC)c12` [Compound 16a, methyl 2-(1-methoxy-10-oxo-10H-benzo[c]xanthen-7-yl)benzoate], in data set [1], the Quantum yield stood at 0.4649, the “Quantum yield relative to anion 20c” value was over 2 times and the “Quantum yield relative to neutral compound 15a” value was 40 times.
For `Cl.N=c1ccc2c(-c3ccccc3C(=O)O)c3ccc(N)cc3oc-2c1` [Rhodamine 110], in data set [2], the Abs is given as 495 nm, the Em was 523 nm and the Q.Y. is recorded as 0.91. Moreover, in data set [2] (@ 492), the Brightness is listed as 60788 @ 492 and the ε is 66800 M⁻¹ cm⁻¹. In data set [3] (DMSO:buffer 1:1), this compound had an Em of 526 nm, an Ex of 502 nm and a ε of 67905 M⁻¹ cm⁻¹. The compound also returned an Abs in data set [3] (DMSO:buffer 1:1, pH 7.4 phosphate buffer 12.5 mM) of 503 nm.

The values above are taken from patent US9958451B2, “Near-infrared fluorescent dyes with large stokes shifts” (Portland State University, priority 2011, dated 2018).
